Measured values published in patent US9902739B2, “Small molecule inhibitors of G protein coupled receptor 6 kinases polypeptides” (Mayo Foundation for Medical Education and Research, priority 2014, dated 2018).

target: T1, GRK6, recombinant full-length GST-tagged human protein (Homo sapiens, UniProt P43250); test: GRK6 assay, IC50 determination (8-point concentration-response); assay type: biochemical; details: Series 1 (Table 11); 20 nM GRK6, ATP 12 μM (Km), Peptide 216 1 μM, incubation 7 h
T1 construct: Enzyme: 20 nM GRK6, recombinant full-length GST-tagged human protein; GST
T1 sequence (P43250 whole entry): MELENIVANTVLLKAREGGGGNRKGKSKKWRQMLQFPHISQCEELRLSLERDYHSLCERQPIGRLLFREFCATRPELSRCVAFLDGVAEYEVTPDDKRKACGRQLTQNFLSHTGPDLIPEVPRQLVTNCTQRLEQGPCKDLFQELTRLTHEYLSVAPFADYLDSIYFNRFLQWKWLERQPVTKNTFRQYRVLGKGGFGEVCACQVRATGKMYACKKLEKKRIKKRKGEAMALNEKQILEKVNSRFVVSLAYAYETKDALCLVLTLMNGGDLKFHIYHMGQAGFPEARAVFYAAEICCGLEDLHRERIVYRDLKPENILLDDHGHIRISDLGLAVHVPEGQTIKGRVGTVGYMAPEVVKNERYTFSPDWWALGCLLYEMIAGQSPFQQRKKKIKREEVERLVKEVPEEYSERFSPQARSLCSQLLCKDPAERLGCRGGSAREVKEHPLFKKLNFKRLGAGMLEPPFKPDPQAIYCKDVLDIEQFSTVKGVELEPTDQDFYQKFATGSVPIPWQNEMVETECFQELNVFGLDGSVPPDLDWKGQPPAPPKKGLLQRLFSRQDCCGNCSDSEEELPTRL
Procedure: The following assay conditions were used.
Buffer: 50 mM TRIS-HCl, pH 7.5, 5 mM MgCl2, 2 mM DTT, 0.01% Triton X-100, 10 μM Na3VO4, 10 μM b-GP, 1% DMSO
Enzyme: 20 nM GRK6, recombinant full-length GST-tagged human protein
Peptide substrate (Peptide 216): 1 μM
One hundred two compounds (1-1-1-102) were further characterized by determining IC50 values in a GRK6 assay. This screen has been previously described in WO 2013/063458, which is incorporated by reference in its entirety herein. Briefly, the following activities were performed: 8-point concentration-response determinations in singlicate wells (top concentration=60 μM, 3-fold dilution steps); Repeat tests for QC failed or inconclusive compounds; and Repeat tests (titrate down) for compounds with >50% inhibition at all tested concentrations.
Twelve compounds (2-1-2-12) were further characterized by determining the IC50 values in a GRK6 assay. This screen has been previously described in WO 2013/063458, which is incorporated by reference in its entirety herein. Specific activities were performed as described above (Example 18).
Thirty-six compounds (3-1-3-36) were further characterized by determining the IC50 values in a GRK6 assay. This screen has been previously described in WO 2013/063458, which is incorporated by reference in its entirety herein. Specific activities were performed as described above (Example 18).
Fifty-four compounds (4-1-4-54) were further characterized by determining the IC50 values in a GRK6 assay. This screen has been previously described in WO 2013/063458, which is incorporated by reference in its entirety herein. Specific activities were performed as described above (Example 18).

Compound | IC50 [nM]
O=C(O)CSc1nnc(-c2ccc(-c3ccc4[nH]cc(-c5ccccc5)c4c3)o2)[nH]1 [Compound 1-1] | 79
O=C(O)CSc1nnc(-c2ccc(-c3cccc(OCc4cccc([N+](=O)[O-])c4)c3)o2)[nH]1 [Compound 1-2] | 126
O=C(O)CSc1nnc(-c2ccc(-c3ccc4[nH]c5ccccc5c4c3)o2)[nH]1 [Compound 1-3] | 131
O=C(O)CSc1nnc(-c2ccc(-c3ccc4[nH]c(-c5ccccc5)cc4c3)o2)[nH]1 [Compound 1-4] | 133
O=C(O)CSc1nnc(-c2ccc(-c3cccc4[nH]c(-c5ccccc5)cc34)o2)[nH]1 [Compound 1-5] | 137
N#Cc1cccc(COc2cccc(-c3ccc(-c4nnc(SCC(=O)O)[nH]4)o3)c2)c1 [Compound 1-6] | 162
N#Cc1ccc(COc2cccc(-c3ccc(-c4nnc(SCC(=O)O)[nH]4)o3)c2)cc1 [Compound 1-7] | 167
COc1cc(Cl)cc(-c2ccc(-c3nnc(SCC(=O)O)[nH]3)o2)c1 [Compound 1-8] | 170
O=C(O)CSc1nnc(-c2ccc(-c3ccc(Cl)c(Cl)c3)o2)[nH]1 [Compound 1-9] | 175
O=C(O)CSc1nnc(-c2ccc(-c3cc(Cl)cc(Cl)c3)o2)[nH]1 [Compound 1-10] | 186
COc1ccc2cc(C#Cc3ccc(-c4nnc(SCC(=O)O)[nH]4)o3)ccc2c1 [Compound 1-11] | 187
Cn1c2ccccc2c2ccc(-c3ccc(-c4nnc(SCC(=O)O)[nH]4)o3)cc21 [Compound 1-12] | 189
O=C(O)CSc1nnc(-c2ccc(-c3cccc(OCc4cccc(OC(F)F)c4)c3)o2)[nH]1 [Compound 1-13] | 195
Cn1ccc2ccc(-c3ccc(-c4nnc(SCC(=O)O)[nH]4)o3)cc21 [Compound 1-14] | 216
O=C(O)CSc1nnc(-c2ccc(-c3cnc4ccccc4c3)o2)[nH]1 [Compound 1-15] | 234
COc1ccc2cc(-c3ccc(-c4nnc(SCC(=O)O)[nH]4)o3)ccc2c1 [Compound 1-16] | 241
COc1ccc(-c2ccc(-c3nnc(SCC(=O)O)[nH]3)o2)cc1C=O [Compound 1-17] | 245
N#Cc1ccc2[nH]c(-c3ccc(-c4nnc(SCC(=O)O)[nH]4)o3)cc2c1 [Compound 1-18] | 250
O=C(O)CSc1nnc(-c2ccc(C#Cc3ccc4ccccc4c3)o2)[nH]1 [Compound 1-19, 2-((5-(5-(naphthalen-2-ylethynyl)furan-2-yl)-4H-1,2,4-triazol-3-yl)thio)acetic acid] | 259
O=C(O)CSc1nnc(-c2ccc(-c3cc(Cl)cc(OCc4ccccc4)c3)o2)[nH]1 [Compound 1-20] | 260
O=C(O)CSc1nnc(-c2ccc(-c3cccc(OC(F)(F)F)c3)o2)[nH]1 [Compound 1-21] | 265
O=C(O)CSc1nnc(-c2ccc(-c3ccc4cc(-c5ccccc5)[nH]c4c3)o2)[nH]1 [Compound 1-22] | 269
O=C(O)CSc1nnc(-c2ccc(-c3cccc(OCc4ccccc4)c3)o2)[nH]1 [Compound 1-23] | 273

Compound | IC50 [nM]
O=C(O)CSc1nnc(-c2ccc(-c3cccc(OCc4cccc(Cl)c4)c3)o2)[nH]1 [Compound 1-24] | 276
O=C(O)CSc1nnc(-c2ccc(-c3ccc(Oc4ccccc4)cc3)o2)[nH]1 [Compound 1-25] | 284
O=C(O)CSc1nnc(-c2ccc(-c3ccc4sccc4c3)o2)[nH]1 [Compound 1-26] | 285
CCCOc1ccc(-c2ccc(-c3nnc(SCC(=O)O)[nH]3)o2)cc1Cl [Compound 1-27] | 309
O=C(O)CSc1nnc(-c2ccc(-c3cc(Cl)ccc3F)o2)[nH]1 [Compound 1-28] | 311
O=C(O)CSc1nnc(-c2ccc(-c3ccc(F)c(Cl)c3)o2)[nH]1 [Compound 1-29] | 314
O=C(O)CSc1nnc(-c2ccc(-c3ccc4ncccc4c3)o2)[nH]1 [Compound 1-30, 2-((3-(5-(quinolin-6-yl)furan-2-yl)-1H-1,2,4-triazol-5-yl)thio)acetic acid] | 315
COc1ccc2cc(-c3oc(-c4nnc(SCC(=O)O)[nH]4)cc3C#CCO)ccc2c1 [Compound 1-31] | 324
O=C(O)CSc1nnc(-c2ccc(-c3cc4ccccc4o3)o2)[nH]1 [Compound 1-32] | 327
N#Cc1c[nH]c2cc(-c3ccc(-c4nnc(SCC(=O)O)[nH]4)o3)ccc12 [Compound 1-33] | 332
CCCOc1cccc(-c2ccc(-c3nnc(SCC(=O)O)[nH]3)o2)c1 [Compound 1-34] | 341
O=C(O)CSc1nnc(-c2ccc(-c3ccc4[nH]ccc4c3)o2)[nH]1 [Compound 1-35] | 347
O=C(O)CSc1nnc(-c2ccc(-c3cccc(Cl)c3)o2)[nH]1 [Compound 1-36] | 359
Cc1ccc(-c2ccc(-c3nnc(SCC(=O)O)[nH]3)o2)cc1Cl [Compound 1-37] | 359
CCOc1ccc2ccc(-c3ccc(-c4nnc(SCC(=O)O)[nH]4)o3)cc2c1 [Compound 1-38] | 362
O=C(O)CSc1nnc(-c2ccc(-c3cc(O)cc(F)c3)o2)[nH]1 [Compound 1-39] | 364
O=C(O)CSc1nnc(-c2ccc(-c3cccc(OCc4ccc(Cl)c(Cl)c4)c3)o2)[nH]1 [Compound 1-40] | 367
Cc1cc(-c2ccc(-c3nnc(SCC(=O)O)[nH]3)o2)ccc1Cl [Compound 1-42] | 392
COc1cc(-c2ccc(-c3nnc(SCC(=O)O)[nH]3)o2)ccc1OCc1ccccc1 [Compound 1-43] | 395
COc1cccc(-c2ccc(-c3nnc(SCC(=O)O)[nH]3)o2)c1 [Compound 1-44] | 402
NS(=O)(=O)c1cccc(-c2ccc(-c3nnc(SCC(=O)O)[nH]3)o2)c1 [Compound 1-45] | 413
O=C(O)CSc1nnc(-c2ccc(-c3ccc4cc[nH]c4c3)o2)[nH]1 [Compound 1-46] | 421
O=C(O)CSc1nnc(-c2ccc(-c3ccc4occc4c3)o2)[nH]1 [Compound 1-47] | 424

Compound | IC50 [nM]
O=C(O)CSc1nnc(-c2ccc(-c3cccc(OCc4ccc5ccccc5c4)c3)o2)[nH]1 [Compound 1-48] | 458
COc1ccc2cc(-c3oc(-c4nnc(SCC(=O)O)[nH]4)cc3Br)ccc2c1 [Compound 1-49] | 458
O=C(O)CSc1nnc(-c2ccc(-c3ccc(Cl)cc3)o2)[nH]1 [Compound 1-50] | 473
CCOc1ccc(-c2ccc(-c3nnc(SCC(=O)O)[nH]3)o2)cc1Cl [Compound 1-51] | 497
O=C(O)CSc1nnc(-c2ccc(-c3cccc(OCc4cccc(C(F)(F)F)c4)c3)o2)[nH]1 [Compound 1-52] | 505
COc1ccc(/C=C/c2ccc(-c3nnc(SCC(=O)O)[nH]3)o2)cc1 [Compound 1-53] | 514
COc1ccc(-c2ccc(-c3nnc(SCC(=O)O)[nH]3)o2)cc1OCc1ccccc1 [Compound 1-54] | 516
O=C(O)CSc1nnc(-c2ccc(-c3c[nH]c4ccccc34)o2)[nH]1 [Compound 1-55] | 563
O=C(O)CSc1nnc(-c2ccc(-c3cccc(C(F)(F)F)c3)o2)[nH]1 [Compound 1-56] | 595
O=C(O)CSc1nnc(-c2ccc(-c3cc4cc(F)ccc4[nH]3)o2)[nH]1 [Compound 1-57] | 608
O=C(O)CSc1nnc(-c2ccc(-c3cccc(OCc4ccc(Cl)c(C(F)(F)F)c4)c3)o2)[nH]1 [Compound 1-58] | 616
O=C(O)CSc1nnc(-c2ccc(-c3cccc([N+](=O)[O-])c3)o2)[nH]1 [Compound 1-59] | 617
O=C(O)CSc1nnc(-c2ccc(-c3cccc(OCc4ccc(C(F)(F)F)cc4)c3)o2)[nH]1 [Compound 1-60] | 630
Cn1ccc2cc(-c3ccc(-c4nnc(SCC(=O)O)[nH]4)o3)ccc21 [Compound 1-61] | 635
O=C(O)CSc1nnc(-c2ccc(-c3cccc(O)c3)o2)[nH]1 [Compound 1-62] | 636
Cn1ncc2ccc(-c3ccc(-c4nnc(SCC(=O)O)[nH]4)o3)cc21 [Compound 1-63, 2-((5-(5-(1-methyl-1H-indazol-6-yl)furan-2-yl)-4H-1,2,4-triazol-3-yl)thio)acetic acid] | 699
CCOc1cccc(-c2ccc(-c3nnc(SCC(=O)O)[nH]3)o2)c1 [Compound 1-64] | 711
Cc1ccc(-c2ccc(-c3nnc(SCC(=O)O)[nH]3)o2)cc1[N+](=O)[O-] [Compound 1-65] | 711
COc1ccc(-c2ccc(-c3nnc(SCC(=O)O)[nH]3)o2)cc1/C=N/OCc1ccccc1 [Compound 1-66] | 734
CC(C)Oc1cccc(-c2ccc(-c3nnc(SCC(=O)O)[nH]3)o2)c1 [Compound 1-67] | 737
O=C(O)CSc1nnc(-c2ccc(-c3ccc(Br)cc3)o2)[nH]1 [Compound 1-68] | 813
Cc1cc2cc(-c3ccc(-c4nnc(SCC(=O)O)[nH]4)o3)ccc2n1C [Compound 1-69] | 828
O=C(O)CSc1nnc(-c2ccc(-c3cccc4[nH]ccc34)o2)[nH]1 [Compound 1-70] | 860
